From PubChem BioAssay (NCI) come the findings set out here.

Molecules are shown by their SMILES.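 These data come from cells grown in 96-well plates and exposed to compound for 48 hours at five concentrations. TGI denotes the concentration required for complete inhibition of growth.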

Some test systems named below: NCI-H226 lung; SK-OV-3 ovarian; U251 CNS; T-47D breast; M14 melanoma; OVCAR-4 ovarian; CCRF-CEM leukemia; UO-31 renal; SN12C renal; SK-MEL-28 melanoma; K-562 leukemia; SF-539 CNS; SF-268 CNS; SW-620 colon; HCT-116 colon; A549 NSCLC; BT-549 breast; MDA-MB-435; HCC-2998 colon; UACC-257 melanoma.
Common to all, as to experiment: NCI-60 cell line screen, 48 h

Turning to `CC[C@]12C=CCN3CC[C@@]4(c5cc(Br)c(OC)cc5N(C)[C@H]4[C@@](O)(C(=O)NC(Cc4c[nH]c5ccccc45)C(=O)OC)[C@@H]1O)[C@@H]32` (some centres undefined), the TGI with NCI-H226 lung, in the assay with SK-OV-3 ovarian, in the assay on U251 CNS, in the assay with T-47D breast, with M14 melanoma and in the assay on OVCAR-4 ovarian was greater than 100 µM in each case. Further, the TGI in the assay on CCRF-CEM leukemia, in the assay with UO-31 renal, in the assay with SN12C renal, with SK-MEL-28 melanoma, in the assay with K-562 leukemia and with SF-539 CNS was greater than 100 µM each time. In addition, the TGI in the assay with SF-268 CNS, in the assay with SW-620 colon, in the assay on HCT-116 colon, in the assay on A549 NSCLC, in the assay on BT-549 breast and in the assay on MDA-MB-435 was greater than 100 µM in each case.

In the case of `COc1cc(S(=O)(=O)Nc2ccc(-c3csc(N4C(=O)CSC4c4ccccc4O)n3)cc2)ccc1Cl` (centres undefined), the TGI in the assay on NCI-H226 lung, in the assay on SK-OV-3 ovarian, with M14 melanoma, with OVCAR-4 ovarian, in the assay on CCRF-CEM leukemia and with UO-31 renal was greater than 100 µM each time. For the same compound, the TGI in the assay with SN12C renal is greater than 100 µM; with SK-MEL-28 melanoma, 88.2 µM; in the assay on K-562 leukemia it was greater than 100 µM; in the assay with SF-539 CNS it was greater than 100 µM; in the assay with SF-268 CNS it was greater than 100 µM; with SW-620 colon, greater than 100 µM. The TGI with HCT-116 colon was greater than 100 µM; in the assay with HCC-2998 colon it was 41.4 µM; with A549 NSCLC, greater than 100 µM; in the assay on BT-549 breast, greater than 100 µM; in the assay with MDA-MB-435, greater than 100 µM; with UACC-257 melanoma it was 97.6 µM.

As for `COc1ccc(N2C(=O)/C(=C/c3ccc(N(CCC#N)CCC#N)cc3)N=C2c2ccccc2)cc1`, the TGI in the assay on NCI-H226 lung, with SK-OV-3 ovarian, in the assay with U251 CNS, with T-47D breast, in the assay with M14 melanoma and with OVCAR-4 ovarian was greater than 100 µM in each case. Further, the TGI in the assay with UO-31 renal, in the assay on SN12C renal, in the assay with SK-MEL-28 melanoma, with K-562 leukemia, in the assay with SF-539 CNS and with SF-268 CNS was greater than 100 µM in each case. Moreover, the TGI with SW-620 colon, with HCT-116 colon, in the assay on A549 NSCLC, with BT-549 breast, with MDA-MB-435 and with UACC-257 melanoma was greater than 100 µM in each case.

Take `CC(=O)[C@@]1(c2ccccc2)CC2(CCN(C)CC2)O[C@H]1C`: the TGI with NCI-H226 lung, in the assay with SK-OV-3 ovarian, in the assay on U251 CNS, with T-47D breast, in the assay on M14 melanoma and in the assay on OVCAR-4 ovarian was greater than 100 µM throughout. Also, the TGI with UO-31 renal, in the assay with SN12C renal, in the assay on SK-MEL-28 melanoma, with K-562 leukemia, with SF-539 CNS and in the assay with SF-268 CNS was greater than 100 µM in each case. Besides, the TGI with SW-620 colon, in the assay with HCT-116 colon, in the assay with A549 NSCLC, with BT-549 breast, in the assay with MDA-MB-435 and with UACC-257 melanoma was greater than 100 µM each time.

Consider `CC(=O)NC(C)(C)C1CCC(C)CC1` (centres undefined), for which the TGI with NCI-H226 lung, in the assay on SK-OV-3 ovarian, in the assay on U251 CNS, with M14 melanoma, in the assay with OVCAR-4 ovarian and with CCRF-CEM leukemia was greater than 100 µM throughout. Moreover, the TGI in the assay with UO-31 renal, in the assay with SN12C renal, with SK-MEL-28 melanoma, in the assay on K-562 leukemia, with SF-539 CNS and in the assay with SF-268 CNS was greater than 100 µM each time. The TGI with SW-620 colon, with HCT-116 colon, in the assay on HCC-2998 colon, in the assay with A549 NSCLC, in the assay with BT-549 breast and with MDA-MB-435 was greater than 100 µM in each case. In the assay on UACC-257 melanoma, this compound came in with a TGI greater than 100 µM.

As to `CC#CCCCC1(C)CCNC1=S` (centres undefined), the TGI in the assay on NCI-H226 lung, in the assay with SK-OV-3 ovarian, with U251 CNS, in the assay with M14 melanoma, in the assay on OVCAR-4 ovarian and with CCRF-CEM leukemia was greater than 10 µM in each case. The TGI with UO-31 renal, in the assay with SN12C renal, in the assay with K-562 leukemia, in the assay with SF-539 CNS, in the assay on SF-268 CNS and with SW-620 colon was greater than 10 µM throughout. In addition, the TGI with HCC-2998 colon, with A549 NSCLC, in the assay on BT-549 breast, in the assay with MDA-MB-435 and in the assay on UACC-257 melanoma was greater than 10 µM each time.

For the compound `O=C1CC(c2ccccc2)n2c(nc3ccccc32)N1` (centres undefined), the TGI with NCI-H226 lung, in the assay on SK-OV-3 ovarian, in the assay on U251 CNS, in the assay on T-47D breast, in the assay on M14 melanoma and in the assay with OVCAR-4 ovarian was greater than 100 µM throughout. The TGI with UO-31 renal, in the assay with K-562 leukemia, in the assay with SF-539 CNS, in the assay with SF-268 CNS, in the assay on SW-620 colon and with HCT-116 colon was greater than 100 µM in each case. Moreover, the TGI in the assay on A549 NSCLC, in the assay with BT-549 breast, in the assay on MDA-MB-435 and with UACC-257 melanoma was greater than 100 µM each time.

Take `CN1C(=O)C23CCCC2CC1(c1ccccc1)S3` (centres undefined): the TGI in the assay with NCI-H226 lung, with SK-OV-3 ovarian, in the assay with U251 CNS, in the assay on T-47D breast, with M14 melanoma and in the assay with OVCAR-4 ovarian was greater than 100 µM in each case. Moreover, the TGI in the assay with UO-31 renal, with SN12C renal, in the assay with SK-MEL-28 melanoma, in the assay with K-562 leukemia, in the assay with SF-539 CNS and with SF-268 CNS was greater than 100 µM in each case. In addition, the TGI in the assay on SW-620 colon is greater than 100 µM; with HCT-116 colon, greater than 100 µM; in the assay on A549 NSCLC it was greater than 100 µM; with BT-549 breast, greater than 100 µM; in the assay on MDA-MB-435 it was greater than 100 µM; in the assay on UACC-257 melanoma it was 80.6 µM.

`CSc1ncc2c(n1)-c1ccccc1OC2`: the TGI was greater than 100 µM in the assay with NCI-H226 lung; greater than 100 µM in the assay on SK-OV-3 ovarian; greater than 100 µM in the assay with U251 CNS; 62.5 µM in the assay with T-47D breast; greater than 100 µM in the assay with M14 melanoma; greater than 100 µM in the assay on OVCAR-4 ovarian. Moreover, the TGI in the assay with CCRF-CEM leukemia, with UO-31 renal, in the assay with SN12C renal, with SF-539 CNS, in the assay on SF-268 CNS and with SW-620 colon was greater than 100 µM each time. In addition, the TGI in the assay with HCT-116 colon, with A549 NSCLC, with BT-549 breast, with MDA-MB-435 and in the assay with UACC-257 melanoma was greater than 100 µM throughout.

In the case of `O=c1[nH]c2ccc(CC(=S)N3CCOCC3)cc2o1`, the TGI with NCI-H226 lung, with SK-OV-3 ovarian, in the assay with U251 CNS, with M14 melanoma, in the assay with CCRF-CEM leukemia and in the assay with SK-MEL-28 melanoma was greater than 100 µM in each case. Moreover, the TGI in the assay with SF-539 CNS, in the assay with SF-268 CNS, in the assay on SW-620 colon, in the assay on HCT-116 colon, in the assay on BT-549 breast and in the assay with MDA-MB-435 was greater than 100 µM in each case. The compound further yielded a TGI in the assay on UACC-257 melanoma greater than 100 µM.

Take `O=C1Nc2ccc(Br)cc2/C1=N/N1C(=O)C(=O)N(C2CCCCC2)C1=S`: the TGI in the assay with NCI-H226 lung is 23.5 µM; with SK-OV-3 ovarian, 21.9 µM; with U251 CNS, 15.9 µM; with T-47D breast, 9.95 µM; in the assay on M14 melanoma, 14.6 µM; in the assay on OVCAR-4 ovarian it was 22.6 µM. Moreover, the TGI came to 16.6 µM in the assay with CCRF-CEM leukemia; 4.79 µM in the assay with UO-31 renal; 16 µM in the assay with SN12C renal; 19 µM in the assay with SK-MEL-28 melanoma; 12.6 µM in the assay with K-562 leukemia; 18.3 µM with SF-539 CNS. Besides, the TGI with SF-268 CNS is 30.3 µM; in the assay on SW-620 colon, 14.8 µM; with HCT-116 colon it was 10.8 µM; with HCC-2998 colon, 13.5 µM; with A549 NSCLC, 19.2 µM; in the assay with MDA-MB-435 it was 8.16 µM. Moreover, the TGI in the assay with UACC-257 melanoma is 34.7 µM.

`Cc1cc(C)c2c(n1)S(=O)(=O)N(CCCN1CCN(c3cccc(Cl)c3)CC1)/C(=C(\O)c1ccc(Br)cc1)C2=O`: the TGI is greater than 100 µM with SK-OV-3 ovarian; greater than 100 µM with U251 CNS; greater than 100 µM in the assay on T-47D breast; greater than 100 µM in the assay on M14 melanoma; 55.8 µM with OVCAR-4 ovarian; greater than 100 µM in the assay with CCRF-CEM leukemia. Further, the TGI was 48.9 µM in the assay on UO-31 renal; 53.2 µM in the assay on SN12C renal; greater than 100 µM in the assay on SK-MEL-28 melanoma; greater than 100 µM in the assay on K-562 leukemia; 95.6 µM in the assay with SF-539 CNS; greater than 100 µM with SF-268 CNS. Further, the TGI was greater than 100 µM in the assay on SW-620 colon; 52 µM in the assay with HCT-116 colon; 71 µM in the assay with A549 NSCLC; greater than 100 µM with BT-549 breast; 78.8 µM in the assay with MDA-MB-435; 45.3 µM in the assay with UACC-257 melanoma.
